In patent US20170320870A1 (Medical Research Council Technology, priority 2009, published 2017):

Molecular target: T1, LRRK2 wild type (recombinant human, catalytic domain amino acids 970-2527, GST-tagged) (Homo sapiens, UniProt Q5S007)
T1 construct: The wild type used was recombinant human, catalytic domain (amino acids 970-2527) GST-tagged, expressed in insect cells; GST; purchased Invitrogen Corporation PV4873; host or cells: insect cells
Assay: LRRK2 wild type protein kinase assay ([γ-33P] ATP, peptide substrate […]), IC50
Assay type: biochemical
Details: LRRK2 (variant not given); read-out: Potency score, LRRK2 IC50
How it was run: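 IC50 derived from duplicate 10-point titrations, with 33P incorporation into a 100 μM peptide counted after P81 filter capture. Roughly 5 nM unactivated kinase reacted with Mg/[γ-33P]ATP for 180 min at room temperature (~21 °C), pH 7.5 Tris buffer containing 10 mM MgCl2, EGTA and DTT; acid-quenched.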

T1 sequence (Q5S007 970-2527): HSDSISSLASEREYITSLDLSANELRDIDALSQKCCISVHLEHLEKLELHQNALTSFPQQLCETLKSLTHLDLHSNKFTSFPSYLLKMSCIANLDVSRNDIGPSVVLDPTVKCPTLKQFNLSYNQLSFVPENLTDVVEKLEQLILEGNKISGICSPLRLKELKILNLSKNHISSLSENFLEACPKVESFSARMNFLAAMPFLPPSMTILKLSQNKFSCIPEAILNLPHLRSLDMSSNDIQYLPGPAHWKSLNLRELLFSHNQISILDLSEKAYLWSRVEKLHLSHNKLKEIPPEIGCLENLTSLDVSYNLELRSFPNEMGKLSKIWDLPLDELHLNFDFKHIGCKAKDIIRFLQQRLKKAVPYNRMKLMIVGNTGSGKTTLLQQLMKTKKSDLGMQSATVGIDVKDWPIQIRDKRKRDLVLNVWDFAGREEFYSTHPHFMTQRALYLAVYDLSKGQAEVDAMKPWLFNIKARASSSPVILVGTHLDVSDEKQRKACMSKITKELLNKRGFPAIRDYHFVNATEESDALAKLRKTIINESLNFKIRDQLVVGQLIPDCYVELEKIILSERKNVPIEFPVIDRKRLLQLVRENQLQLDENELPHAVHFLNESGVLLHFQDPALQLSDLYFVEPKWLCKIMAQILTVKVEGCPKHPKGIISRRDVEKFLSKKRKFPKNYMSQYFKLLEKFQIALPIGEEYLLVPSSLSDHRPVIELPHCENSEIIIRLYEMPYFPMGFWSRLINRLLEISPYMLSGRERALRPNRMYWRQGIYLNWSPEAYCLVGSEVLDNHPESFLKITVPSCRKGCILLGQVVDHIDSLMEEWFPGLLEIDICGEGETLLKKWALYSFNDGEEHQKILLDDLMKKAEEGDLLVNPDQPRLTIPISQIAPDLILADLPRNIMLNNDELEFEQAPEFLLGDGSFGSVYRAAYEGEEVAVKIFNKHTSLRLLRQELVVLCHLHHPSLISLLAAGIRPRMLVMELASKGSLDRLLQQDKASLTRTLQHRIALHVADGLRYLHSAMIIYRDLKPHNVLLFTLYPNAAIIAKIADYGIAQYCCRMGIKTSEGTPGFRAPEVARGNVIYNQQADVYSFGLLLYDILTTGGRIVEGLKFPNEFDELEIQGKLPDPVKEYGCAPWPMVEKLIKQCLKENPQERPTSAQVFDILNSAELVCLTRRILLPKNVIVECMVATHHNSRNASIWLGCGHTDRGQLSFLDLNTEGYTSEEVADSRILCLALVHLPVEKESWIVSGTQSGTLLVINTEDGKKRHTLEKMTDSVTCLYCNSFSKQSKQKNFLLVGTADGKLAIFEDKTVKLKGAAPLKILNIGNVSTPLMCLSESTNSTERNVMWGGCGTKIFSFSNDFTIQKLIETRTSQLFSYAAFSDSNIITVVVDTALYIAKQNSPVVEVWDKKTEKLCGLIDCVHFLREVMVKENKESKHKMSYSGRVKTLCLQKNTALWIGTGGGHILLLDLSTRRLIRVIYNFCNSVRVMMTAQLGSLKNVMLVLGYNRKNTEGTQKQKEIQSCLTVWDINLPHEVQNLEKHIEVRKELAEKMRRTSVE

Compound	IC50
COc1ccc(-c2n[nH]c3ccnc(NC4CCCCC4)c23)cc1 [Example 141, Cyclohexyl-[3-(4-methoxy-phenyl)-1H-pyrazolo[4,3-c]pyridin-4-yl]-amine]	100 to 1000 nM
Fc1cccc(Nc2nccc3[nH]ncc23)c1 [Example 132, (3-Fluoro-phenyl)-(1H-pyrazolo[4,3-c]pyridin-4-yl)-amine]	100 to 1000 nM
Cc1n[nH]c2ccnc(OC(C)C)c12 [Example 277, 4-isopropoxy-3-methyl-1H-pyrazolo[4,3-c]pyridine]	< 100 nM
Cc1n[nH]c2ccnc(Nc3cccc(C(N)=O)c3)c12 [Example 76, 3-(3-Methyl-1H-pyrazolo[4,3-c]pyridin-4-ylamino)-benzamide]	100 to 1000 nM
CC(=O)Nc1ccc(C(=O)Nc2ccc(CCc3n[nH]c4ccnc(NC5CCCCC5)c34)cc2)cc1 [Example 264, 4-Acetylamino-N-{4-[2-(4-cyclohexylamino-1H-pyrazolo[4,3-c]pyridin-3-yl)-ethyl]-phenyl}-benzamide]	< 100 nM
Cc1n[nH]c2ccnc(N3CCN(Cc4cc(F)ccc4F)CC3)c12 [Example 8, 4-[4-(2,5-Difluoro-benzyl)-piperazin-1-yl]-3-methyl-1H-pyrazolo[4,3-c]pyridine]	1000 to 10000 nM
Cc1n[nH]c2ccnc(NC(C)C(C)C)c12 (stereo not shown) [Example 27, (1,2-Dimethyl-propyl)-(3-methyl-1H-pyrazolo[4,3-c]pyridin-4-yl)-amine]	100 to 1000 nM
Cc1n[nH]c2ccnc(-c3cnccn3)c12 [Example 131, 3-Methyl-4-pyrazin-2-yl-1H-pyrazolo[4,3-cc]pyridine]	1000 to 10000 nM
CCN(CC)CCNc1nccc2[nH]nc(C)c12 [Example 14, N,N-diethyl-N′-(3-methyl-1H-pyrazolo[4,3-c]pyridin-4-yl)-ethane-1,2-diamine]	1000 to 10000 nM
c1cc2[nH]ncc2c(NC2CCCCC2)n1 [Example 133, Cyclohexyl-(1H-pyrazolo[4,3-c]pyridin-4-yl)-amine]	1000 to 10000 nM
Nc1cccc(CCc2n[nH]c3ccnc(NC4CCCCC4)c23)c1 [Example 221, {3-[2-(3-Amino-phenyl)-ethyl]-1H-pyrazolo[4,3-c]pyridin-4-yl}-cyclohexyl-amine]	< 100 nM
O=C(/C=C/c1n[nH]c2ccnc(OC3CCCCC3)c12)N1CCC[C@H](c2ccccc2)C1 [Example 261, (E)-3-(4-Cyclohexyloxy-1H-pyrazolo[4,3-c]pyridin-3-yl)-1-((R)-3-phenyl-piperidin-1-yl)-propenone]	< 100 nM
c1cc2[nH]nc(C3CC3)c2c(NC2CCCCC2)n1 [Example 138, Cyclohexyl-(3-cyclopropyl-1H-pyrazolo[4,3-c]pyridin-4-yl)-amine]	100 to 1000 nM
N#Cc1cccc(-c2n[nH]c3ccnc(NC4CCCCC4)c23)c1 [Example 150, 3-(4-Cyclohexylamino-1H-pyrazolo[4,3-c]pyridin-3-yl)-benzonitrile]	100 to 1000 nM
Cc1n[nH]c2ccnc(CCC(C)C)c12 [Example 128, 3-Methyl-4-(3-methyl-butyl)-1H-pyrazolo[4,3-c]pyridine]	1000 to 10000 nM
O=C(Nc1ccc(CCc2n[nH]c3ccnc(NC4CCCCC4)c23)cc1)c1cccc(F)c1 [Example 275, N-{4-[2-(4-Cyclohexylamino-1H-pyrazolo[4,3-c]pyridin-3-yl)-ethyl]-phenyl}-3-fluoro-benzamide]	< 100 nM
c1cc2[nH]nc(-c3ccoc3)c2c(OC2CCCCC2)n1 [Example 236, 4-Cyclohexyloxy-3-furan-3-yl-1H-pyrazolo[4,3-c]pyridine]	< 100 nM

Compound	IC50
CC(=O)Nc1ccc(Nc2nccc3[nH]nc(C)c23)cc1 [Example 79, N-[4-(3-Methyl-1H-pyrazolo[4,3-c]pyridin-4-ylamino)-phenyl]-acetamide]	100 to 1000 nM
Cc1ccccc1Nc1nccc2[nH]nc(C)c12 [Example 320, (2-Methyl-phenyl)-(3-methyl-1H-pyrazolo[4,3-c]pyridin-4-yl)-amine]	100 to 1000 nM
CC(=O)Nc1cccc(NC(=O)c2ccc(CCc3n[nH]c4ccnc(NC5CCCCC5)c34)cc2)c1 [Example 255, N-(3-Acetylamino-phenyl)-4-[2-(4-cyclohexylamino-1H-pyrazolo[4,3-c]pyridin-3-yl)-ethyl]-benzamide]	< 100 nM
Cc1n[nH]c2ccnc(N[C@H]3CC[C@H](C)CC3)c12 [Example 34, Trans-(4-Methyl-cyclohexyl)-(3-methyl-1H-pyrazolo[4,3-c]pyridin-4-yl)-amine]	100 to 1000 nM
Cc1n[nH]c2ccnc(Nc3cnn(C)c3)c12 [Example 88, (3-Methyl-1H-pyrazolo[4,3-c]pyridin-4-yl)-(1-methyl-1H-pyrazol-4-yl)-amine]	100 to 1000 nM
O=C(c1cccc(-c2n[nH]c3ccnc(NC4CCCCC4)c23)c1)N1CCOCC1 [Example 153, [3-(4-Cyclohexylamino-1H-pyrazolo[4,3-c]pyridin-3-yl)-phenyl]-morpholin-4-yl-methanone]	1000 to 10000 nM
O=C(CCc1n[nH]c2ccnc(NC3CCCCC3)c12)N1CCC(c2ccccc2)C1 (stereo not shown) [Example 206, 3-(4-Cyclohexylamino-1H-pyrazolo[4,3-c]pyridin-3-yl)-1-(3-phenyl-pyrrolidin-1-yl)-propan-1-one]	< 100 nM
Cc1n[nH]c2ccnc(NCC(C)(C)C)c12 [Example 32, (2,2-Dimethyl-propyl)-(3-methyl-1H-pyrazolo[4,3-c]pyridin-4-yl)-amine]	1000 to 10000 nM
Cc1n[nH]c2ccnc(NCc3ccc(C(F)(F)F)cc3)c12 [Example 326, (3-Methyl-1H-pyrazolo[4,3-c]pyridin-4-yl)-4-(4-trifluoromethyl-benzyl)-amine]	1000 to 10000 nM
Cc1n[nH]c2ccnc(Oc3cccc(F)c3)c12 [Example 117, 4-(3-Fluoro-phenoxy)-3-methyl-1H-pyrazolo [4,3-c]pyridine]	100 to 1000 nM
CCOc1ccccc1Nc1nccc2[nH]nc(C)c12 [Example 68, (2-Ethoxy-phenyl)-(3-methyl-1H-pyrazolo[4,3-c]pyridin-4-yl)-amine]	100 to 1000 nM
CN1CCC(C(=O)Nc2cccc(CCc3n[nH]c4ccnc(NC5CCCCC5)c34)c2)CC1 [Example 224, 1-Methyl-piperidine-4-carboxylic acid {3-[2-(4-cyclohexylamino-1H-pyrazolo[4,3-c]pyridin-3-yl)-ethyl]-phenyl}-amide]	100 to 1000 nM
Cc1n[nH]c2ccnc(Nc3ccc4ncsc4c3)c12 [Example 313, Benzothiazol-6-yl-(3-methyl-1H-pyrazolo[4,3-c]pyridin-4-yl)-amine]	100 to 1000 nM
Clc1ccc(-c2n[nH]c3ccnc(NC4CCCCC4)c23)cc1 [Example 145, [3-(4-Chloro-phenyl)-1H-pyrazolo[4,3-c]pyridin-4-yl]-cyclohexyl-amine]	100 to 1000 nM
COc1ccccc1Nc1nccc2[nH]nc(C)c12 [Example 84, (2-Methoxy-phenyl)-(3-methyl-1H-pyrazolo[4,3-c]pyridin-4-yl)-amine]	100 to 1000 nM
O=C(CCc1n[nH]c2ccnc(NC3CCCCC3)c12)Nc1cccc(F)c1 [Example 187, 3-(4-Cyclohexylamino-1H-pyrazolo[4,3-c]pyridin-3-yl)-N-(3-fluoro-phenyl)-propionamide]	1000 to 10000 nM
Cc1n[nH]c2ccnc(NCc3ccccn3)c12 [Example 312, (3-Methyl-1H-pyrazolo[4,3-c]pyridin-4-yl)-pyridin-2-ylmethyl-amine]	1000 to 10000 nM
